Assay results taken from patent US9616082B2, “Antitumor agent including irinotecan hydrochloride hydrate” (TAIHO PHARMACEUTICAL CO., LTD., priority 2013, dated 2017).
Structures can show the parent of a compound that is named as a salt.

Experiments:
[1] = tested on: human colon cancer cell line (KM20C); assay: Survival of mice intraperitoneally transplanted with KM20C (Reference Example); type: in vivo, BALB/cA Jcl-nu mice; details: i.v., weekly; for ILS (increase in life span): 6 weeks from Day 3; for Survival time (day) Mean ± SD: 6 weeks from Day 3, n=10
Protocol: Cultured cells (1×10^7 cells/mouse) of human colon cancer cell line (KM20C) were intraperitoneally transplanted into 5-6 weeks old BALB/cA Jcl-nu mice after birth, and the mice were assigned to each group so that the mean body weight of each group became equal. The date on which such grouping (n=10) was performed was taken as Day 0.
[…]. Starting the dug administration from Day 3, a 5-days' daily oral administration of the FTD/TPI combination drug with 2-days' rest was performed for 6 weeks, and CPT-11 was administered once in a week from the tail vein for 6 weeks.
As an index of the antitumor effect, the number of survivors of each group of mice and the survival time of each group was compared.

[2] = Kiso to Rinsho, (1990), Vol. 24, No. 14, 7-17; cited from earlier work
[3] = tested on: human gastric cancer cell line (SC-2); assay: Combined administration test, SC-2 tumor (Example 2); details: CPT-11 100 mg/kg/day, Day 1, 15, i.v., q.d.; on Day 15
colorectal cancer = assay: Combination therapy in a colorectal cancer patient, 28-day cycle schedule; type: in vivo, human; details: 28-day cycle: FTD/TPI two times 5-days' administration with 2-days' rest then 2 weeks rest, CPT-11 once in 2 weeks, side effects appeared strongly
Protocol: In view of this situation, when a combination therapy comprising repeating a 28-day cycle consisting of two times of 5-days' administration with 2-days' rest of an FTD/TPI combination drug, followed by rest of the drug administration for 2 weeks, and an administration of CPT-11 once in 2 weeks was performed in a colorectal cancer patient on the basis of an administration schedule in which effects of each drug have previously been reported as in Reference Example described later, only about 30% of the predetermined amount of CPT-11 could be administered because side effects appeared strongly. Since antitumor effect is generally proportional to the total dose, the present inventors have studied on administration schedule which can suppress the occurrence of side effects and in which a predetermined amount can be administered.

**Q.** Which results are given for `CCc1c2c(nc3ccc(OC(=O)N4CCC(N5CCCCC5)CC4)cc13)-c1cc3c(c(=O)n1C2)COC(=O)[C@]3(O)CC` [CPT-11, irinotecan hydrochloride hydrate]?
**A.** ILS (increase in life span) ([1]; CPT-11 80 mg/kg/day): 54.0%; Survival time (day) Mean ± SD ([1]; CPT-11 80 mg/kg/day): 61.6 ± 12.6 days; ILS (increase in life span) ([1]; CPT-11 100 mg/kg/day): 81.3%; Survival time (day) Mean ± SD ([1]; CPT-11 100 mg/kg/day): 72.5 ± 12.3 days; dose at which a death case was reported [2]: 111 mg/kg/day; TGI (tumor growth inhibition rate) [3]: 78.2%; share of the predetermined amount of CPT-11 that could be administered (colorectal cancer): about 30%
